Numbers after ± are expanded uncertainties.
How the values were obtained:
[1] = for viscosity / mass density: 100 kPa, Liquid; for viscosity: Falling or rolling sphere viscometry; for mass density: Vibrating tube method; for Glass transition temperature: DSC
[2] = xn = mol fraction of the nth substance listed; conditions: 100 kPa, Liquid, x2 = 0; for viscosity: Falling or rolling sphere viscometry; for mass density: Vibrating tube method

Compound	mass density ([1]; 298.15 K)	mass density ([1]; 303.15 K)	mass density ([1]; 308.15 K)	mass density ([1]; 313.15 K)	viscosity ([1]; 318.15 K)	mass density ([1]; 318.15 K)	viscosity ([1]; 323.15 K)	mass density ([1]; 323.15 K)	viscosity ([1]; 328.15 K)	mass density ([1]; 328.15 K)	viscosity ([1]; 333.15 K)	mass density ([1]; 333.15 K)	viscosity ([1]; 338.15 K)	mass density ([1]; 338.15 K)	viscosity ([1]; 343.15 K)	mass density ([1]; 343.15 K)	viscosity ([1]; 348.15 K)	mass density ([1]; 348.15 K)	Glass transition temperature [1]	viscosity ([2]; 298.15 K)	also measured
CC(=O)[O-].CC[N+]1(C)CCCC1 [1-ethyl-1-methylpyrrolidinium acetate]	1064.5 ± 2.2 kg/m3	1061.8 ± 2.2 kg/m3	1058.7 ± 2.2 kg/m3	1055.9 ± 2.2 kg/m3	93.4 ± 9.7 mPa·s	1053.1 ± 2.2 kg/m3	74 ± 7.6 mPa·s	1050.3 ± 2.2 kg/m3	60 ± 6.1 mPa·s	1047.4 ± 2.2 kg/m3	49.2 ± 5 mPa·s	1044.4 ± 2.1 kg/m3	39.4 ± 4 mPa·s	1041.8 ± 2.1 kg/m3	32.4 ± 3.3 mPa·s	1038.8 ± 2.1 kg/m3	26 ± 2.6 mPa·s	1035.9 ± 2.1 kg/m3	-88 ± 20 °C		viscosity ([1]; 298.15 K): 240 ± 27 mPa·s; viscosity ([1]; 303.15 K): 184 ± 20 mPa·s; viscosity ([1]; 308.15 K): 145 ± 15 mPa·s; viscosity ([1]; 313.15 K): 117 ± 12 mPa·s
CC[N+]1(C)CCCC1.O=C([O-])CO [1-ethyl-1-methylpyrrolidinium glycolate]	1134 ± 2.5 kg/m3	1130.7 ± 2.5 kg/m3	1127.3 ± 2.4 kg/m3	1124 ± 2.4 kg/m3	116 ± 12 mPa·s	1120.8 ± 2.4 kg/m3	92.2 ± 9.5 mPa·s	1117.6 ± 2.4 kg/m3	76.9 ± 7.9 mPa·s	1114.4 ± 2.4 kg/m3	60.6 ± 6.2 mPa·s	1111.2 ± 2.4 kg/m3	49.6 ± 5 mPa·s	1108.1 ± 2.4 kg/m3	41.2 ± 4.2 mPa·s	1105 ± 2.4 kg/m3	34.2 ± 3.5 mPa·s	1101.9 ± 2.3 kg/m3	-80 ± 20 °C		viscosity ([1]; 298.15 K): 345 ± 41 mPa·s; viscosity ([1]; 303.15 K): 254 ± 29 mPa·s; viscosity ([1]; 308.15 K): 192 ± 21 mPa·s; viscosity ([1]; 313.15 K): 151 ± 16 mPa·s
CC[N+]1(C)CCOCC1.O=C([O-])CO [N-ethyl-N-methylmorpholinium glycolate]	1232.6 ± 2.9 kg/m3	1229.5 ± 2.9 kg/m3	1226.3 ± 2.9 kg/m3	1223 ± 2.9 kg/m3	2500 ± 390 mPa·s	1219.8 ± 2.9 kg/m3	1799 ± 270 mPa·s	1216.5 ± 2.9 kg/m3	1155 ± 160 mPa·s	1213.3 ± 2.8 kg/m3	854 ± 110 mPa·s	1210.1 ± 2.8 kg/m3	666 ± 86 mPa·s	1207.2 ± 2.8 kg/m3	488 ± 60 mPa·s	1204.1 ± 2.8 kg/m3	363 ± 43 mPa·s	1201.1 ± 2.8 kg/m3	-59 ± 20 °C		
O [water] + CC(=O)[O-].CC[N+]1(C)CCCC1																				0.89 ± 0.089 mPa·s	viscosity ([2]; 303.15 K): 0.797 ± 0.08 mPa·s; viscosity ([2]; 308.15 K): 0.719 ± 0.072 mPa·s; viscosity ([2]; 313.15 K): 0.653 ± 0.066 mPa·s; viscosity ([2]; 318.15 K): 0.596 ± 0.06 mPa·s; viscosity ([2]; 323.15 K): 0.547 ± 0.055 mPa·s; mass density ([2]; 323.15 K): 987.9 ± 1 kg/m3; viscosity ([2]; 328.15 K): 0.504 ± 0.051 mPa·s; mass density ([2]; 328.15 K): 985.7 ± 1 kg/m3; viscosity ([2]; 333.15 K): 0.466 ± 0.047 mPa·s; mass density ([2]; 333.15 K): 983.2 ± 1 kg/m3; viscosity ([2]; 338.15 K): 0.433 ± 0.043 mPa·s; mass density ([2]; 338.15 K): 980.3 ± 1 kg/m3; viscosity ([2]; 343.15 K): 0.404 ± 0.041 mPa·s; mass density ([2]; 343.15 K): 978.1 ± 1 kg/m3; viscosity ([2]; 348.15 K): 0.378 ± 0.038 mPa·s; mass density ([2]; 348.15 K): 974.8 ± 1 kg/m3
O [water] + CC[N+]1(C)CCCC1.O=C([O-])CO																				0.89 ± 0.089 mPa·s	viscosity ([2]; 303.15 K): 0.797 ± 0.08 mPa·s; viscosity ([2]; 308.15 K): 0.719 ± 0.072 mPa·s; viscosity ([2]; 313.15 K): 0.653 ± 0.066 mPa·s; viscosity ([2]; 318.15 K): 0.596 ± 0.06 mPa·s; viscosity ([2]; 323.15 K): 0.547 ± 0.055 mPa·s; mass density ([2]; 323.15 K): 987.9 ± 1 kg/m3; viscosity ([2]; 328.15 K): 0.504 ± 0.051 mPa·s; mass density ([2]; 328.15 K): 985.7 ± 1 kg/m3; viscosity ([2]; 333.15 K): 0.466 ± 0.047 mPa·s; mass density ([2]; 333.15 K): 983.2 ± 1 kg/m3; viscosity ([2]; 338.15 K): 0.433 ± 0.043 mPa·s; mass density ([2]; 338.15 K): 980.3 ± 1 kg/m3; viscosity ([2]; 343.15 K): 0.404 ± 0.041 mPa·s; mass density ([2]; 343.15 K): 978.1 ± 1 kg/m3; viscosity ([2]; 348.15 K): 0.378 ± 0.038 mPa·s; mass density ([2]; 348.15 K): 974.8 ± 1 kg/m3
O [water] + CC[N+]1(C)CCOCC1.O=C([O-])CO																				0.89 ± 0.089 mPa·s	viscosity ([2]; 303.15 K): 0.797 ± 0.08 mPa·s; viscosity ([2]; 308.15 K): 0.719 ± 0.072 mPa·s; viscosity ([2]; 313.15 K): 0.653 ± 0.066 mPa·s; viscosity ([2]; 318.15 K): 0.596 ± 0.06 mPa·s; viscosity ([2]; 323.15 K): 0.547 ± 0.055 mPa·s; mass density ([2]; 323.15 K): 987.9 ± 1 kg/m3; viscosity ([2]; 328.15 K): 0.504 ± 0.051 mPa·s; mass density ([2]; 328.15 K): 985.7 ± 1 kg/m3; viscosity ([2]; 333.15 K): 0.466 ± 0.047 mPa·s; mass density ([2]; 333.15 K): 983.2 ± 1 kg/m3; viscosity ([2]; 338.15 K): 0.433 ± 0.043 mPa·s; mass density ([2]; 338.15 K): 980.3 ± 1 kg/m3; viscosity ([2]; 343.15 K): 0.404 ± 0.041 mPa·s; mass density ([2]; 343.15 K): 978.1 ± 1 kg/m3; viscosity ([2]; 348.15 K): 0.378 ± 0.038 mPa·s; mass density ([2]; 348.15 K): 974.8 ± 1 kg/m3
